pKi: −log10 of the molar value.
target: T1, human cloned 5-HT6 receptors (Homo sapiens, UniProt P50406); assay: 5-HT6 binding affinity, [3H]-LSD displacement; conditions: membranes of Hela cells expressing human cloned 5-HT6 receptors; [3H]-LSD 3.0 nM; 120 minutes at room temperature
T1 construct: expressed in transfected cells; host or cells: HeLa cells
Description: The affinity of test compounds for the serotonin 5-HT6 receptor was evaluated in the following manner. Cultured Hela cells expressing human cloned 5-HT6 receptors were harvested and centrifuged at low speed (1,000×g) for 10.0 minutes to remove the culture media. The harvested cells were suspended in half volume of fresh physiological phosphate buffered saline solution and recentrifuged at the same speed. This operation was repeated. The collected cells were then homogenized in ten volumes of 50 mM Tris.HCl (pH 7.4) and 0.5 mM EDTA. The homogenate was centrifuged at 40,000×g for 30.0 min and the precipitate was collected. The obtained pellet was resuspended in 10 volumes of Tris.HCl buffer and recentrifuged at the same speed. The final pellet was suspended in a small volume of Tris.HCl buffer and the tissue protein content was determined in aliquots of 10-25 μl volumes. […] The volume of the suspended cell membranes was adjusted to give a tissue protein concentration of 1.0 mg/ml of suspension. The prepared membrane suspension (10 times concentrated) was aliquoted in 1.0 ml volumes and stored at −70° C. until used in subsequent binding experiments.
The bound complex caught on the filter disk was allowed to air dry and the radioactivity is measured in a Packard TopCount® equipped with six photomultiplier detectors, after the addition of 40.0 μl Microscint®-20 scintillant to each shallow well. The unifilter plate was heat-sealed and counted in a PackardTopCount® with a tritium efficiency of 31.0%.
Specific binding to the 5-HT6 receptor was defined as the total radioactivity bound less the amount bound in the presence of 10.0 μM unlabeled methiothepin. Binding in the presence of varying concentrations of test compound was expressed as a percentage of specific binding in the absence of test compound. The results were plotted as log % bound versus log concentration of test compound. […] A linear regression line of data points was plotted, from which the IC50 value is determined and the Ki value is determined based upon the following equation: Ki=IC50/(1+L/KD) where L was the concentration of the radioactive ligand used and KD is the dissociation constant of the ligand for the receptor, both expressed in nM.

T1 sequence (P50406 whole entry): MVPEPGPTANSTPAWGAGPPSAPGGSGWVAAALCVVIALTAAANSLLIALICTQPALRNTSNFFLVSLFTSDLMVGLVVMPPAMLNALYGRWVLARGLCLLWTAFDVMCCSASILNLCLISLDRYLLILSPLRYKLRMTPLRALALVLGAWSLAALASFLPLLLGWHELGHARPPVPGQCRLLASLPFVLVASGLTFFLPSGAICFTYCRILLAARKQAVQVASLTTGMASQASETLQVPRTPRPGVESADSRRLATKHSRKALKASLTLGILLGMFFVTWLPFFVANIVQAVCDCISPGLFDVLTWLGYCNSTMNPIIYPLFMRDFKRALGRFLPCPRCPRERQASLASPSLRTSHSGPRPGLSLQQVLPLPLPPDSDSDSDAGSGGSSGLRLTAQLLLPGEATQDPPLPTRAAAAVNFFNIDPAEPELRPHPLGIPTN

Row | pKi | Structure (SMILES)
1 | 8.00 to 11.00 | CCCCNCCCOc1ccc2[nH]nc(S(=O)(=O)c3cccc4ccccc34)c2c1 [Example 19, Butyl-{3-[3-(naphthalene-1-sulfonyl)-1H-indazol-5-yloxy]-propyl}-amine]
2 | 8.00 to 11.00 | O=S(=O)(c1cccc2ccccc12)c1n[nH]c2ccc(OCCCNC3CC3)cc12 [Example 20, Cyclopropyl-{3-[3-(naphthalene-1-sulfonyl)-1H-indazol-5-yloxy]-propyl}-amine]
3 | 8.00 to 11.00 | O=S(=O)(c1cccc2ccccc12)c1n[nH]c2ccc(OCCCNC3CCCC3)cc12 [Example 21, Cyclopentyl-{3-[3-(naphthalene-1-sulfonyl)-1H-indazol-5-yloxy]-propyl}-amine]
4 | 8.00 to 11.00 | CC(C)NCCCOc1ccc2[nH]nc(S(=O)(=O)c3cccc4ccccc34)c2c1 [Example 22, Isopropyl-{3-[3-(naphthalene-1-sulfonyl)-1H-indazol-5-yloxy]-propyl}-amine]
5 | 8.00 to 11.00 | O=S(=O)(c1cccc2ccccc12)c1n[nH]c2ccc(OCCCN3CCCC3)cc12 [Example 23, 3-(Naphthalene-1-sulfonyl)-5-(3-pyrrolidin-1-yl-propoxy)-1H-indazole]
6 | 8.00 to 11.00 | O=S(=O)(c1cccc2ccccc12)c1n[nH]c2ccc(OCCCN3CCCCC3)cc12 [Example 24, 3-(Naphthalene-1-sulfonyl)-5-(3-piperidin-1-yl-propoxy)-1H-indazole]
7 | 8.00 to 11.00 | O=S(=O)(c1cccc2ccccc12)c1n[nH]c2ccc(OCCCN3CCOCC3)cc12 [Example 25, 5-(3-Morpholin-4-yl-propoxy)-3-(naphthalene-1-sulfonyl)-1H-indazole]
8 | 8.00 to 11.00 | NCCCOc1ccc2[nH]nc(S(=O)(=O)c3cccc4ccccc34)c2c1 [Example 26, 3-[3-(Naphthalene-1-sulfonyl)-1H-indazol-5-yloxy]-propylamine]
9 | 8.00 to 11.00 | CN(C)CCOc1ccc2[nH]nc(S(=O)(=O)c3cccc4ccccc34)c2c1 [Example 27, Dimethyl-{2-[3-(naphthalene-1-sulfonyl)-1H-indazol-5-yloxy]-ethyl}-amine]
10 | 8.00 to 11.00 | CC(C)NCCOc1ccc2[nH]nc(S(=O)(=O)c3cccc4ccccc34)c2c1 [Example 28, Isopropyl-{2-[3-(naphthalene-1-sulfonyl)-1H-indazol-5-yloxy]-ethyl}-amine]
11 | 8.00 to 11.00 | CCN(C)CCOc1ccc2[nH]nc(S(=O)(=O)c3cccc4ccccc34)c2c1 [Example 29, Ethyl-methyl-{2-[3-(naphthalene-1-sulfonyl)-1H-indazol-5-yloxy]-ethyl}-amine]
12 | 8.00 to 11.00 | NCCOc1ccc2[nH]nc(S(=O)(=O)c3cccc4ccccc34)c2c1 [Example 30, 2-[3-(Naphthalene-1-sulfonyl)-1H-indazol-5-yloxy]-ethylamine]
13 | 8.00 to 11.00 | CNCCOc1ccc2[nH]nc(S(=O)(=O)c3cccc4ccccc34)c2c1 [Example 31, Methyl-{2-[3-(naphthalene-1-sulfonyl)-1H-indazol-5-yloxy]-ethyl}-amine]
14 | 8.00 to 11.00 | CCNCCOc1ccc2[nH]nc(S(=O)(=O)c3cccc4ccccc34)c2c1 [Example 32, Ethyl-{2-[3-(naphthalene-1-sulfonyl)-1H-indazol-5-yloxy]-ethyl}-amine]
15 | 8.00 to 11.00 | CCN(CC)CCOc1ccc2[nH]nc(S(=O)(=O)c3cccc4ccccc34)c2c1 [Example 33, Diethyl-{2-[3-(naphthalene-1-sulfonyl)-1H-indazol-5-yloxy]-ethyl}-amine]
16 | 8.00 to 11.00 | CCCCNCCOc1ccc2[nH]nc(S(=O)(=O)c3cccc4ccccc34)c2c1 [Example 34, Butyl-{2-[3-(naphthalene-1-sulfonyl)-1H-indazol-5-yloxy]-ethyl}-amine]
17 | 8.00 to 11.00 | O=S(=O)(c1cccc2ccccc12)c1n[nH]c2ccc(OCCNC3CCCC3)cc12 [Example 35, Cyclopentyl-{2-[3-(naphthalene-1-sulfonyl)-1H-indazol-5-yloxy]-ethyl}-amine]
18 | 8.00 to 11.00 | O=S(=O)(c1cccc2ccccc12)c1n[nH]c2ccc(OCCNC3CC3)cc12 [Example 36, Cyclopropyl-{2-[3-(naphthalene-1-sulfonyl)-1H-indazol-5-yloxy]-ethyl}-amine]
19 | 8.00 to 11.00 | O=S(=O)(c1cccc2ccccc12)c1n[nH]c2ccc(OCCN3CCCC3)cc12 [Example 37, 3-(Naphthalene-1-sulfonyl)-5-(2-pyrrolidin-1-yl-ethoxy)-1H-indazole]
20 | 8.00 to 11.00 | O=S(=O)(c1cccc2ccccc12)c1n[nH]c2ccc(OCCN3CCCCC3)cc12 [Example 38, 3-(Naphthalene-1-sulfonyl)-5-(2-piperidin-1-yl-ethoxy)-1H-indazole]
21 | 7.60 to 7.96 | O=S(=O)(c1cccc2ccccc12)c1n[nH]c2ccc(OCCN3CCOCC3)cc12 [Example 39, 5-(2-Morpholin-4-yl-ethoxy)-3-(naphthalene-1-sulfonyl)-1H-indazole]
22 | 8.00 to 11.00 | CNCCOc1ccc2c(c1)c(S(=O)(=O)c1cccc3ccccc13)nn2C [Example 40, Methyl-{2-[1-methyl-3-(naphthalene-1-sulfonyl)-1H-indazol-5-yloxy]-ethyl}-amine]
23 | 8.00 to 11.00 | CN(C)CCOc1ccc2c(c1)c(S(=O)(=O)c1cccc3ccccc13)nn2C [Example 41, Dimethyl-{2-[1-methyl-3-(naphthalene-1-sulfonyl)-1H-indazol-5-yloxy]-ethyl}-amine]

The next lines start with the compound.

Row | Structure (SMILES) | pKi
24 | CN(C)CCOc1ccc2[nH]nc(S(=O)(=O)c3ccccc3)c2c1 [Example 1, [2-(3-Benzenesulfonyl-1H-indazol-5-yloxy)-ethyl]-dimethyl-amine] | 7.60 to 7.96
25 | CCN(C)CCOc1ccc2[nH]nc(S(=O)(=O)c3ccccc3)c2c1 [Example 2, [2-(3-Benzenesulfonyl-1H-indazol-5-yloxy)-ethyl]-ethyl-methyl-amine] | < 7.35
26 | O=S(=O)(c1ccccc1)c1n[nH]c2ccc(OCCN3CCCCC3)cc12 [Example 3, 3-Benzenesulfonyl-5-(2-piperidin-1-yl-ethoxy)-1H-indazole] | 7.46 to 7.59
27 | CCNCCOc1ccc2[nH]nc(S(=O)(=O)c3ccccc3)c2c1 [Example 4, [2-(3-Benzenesulfonyl-1H-indazol-5-yloxy)-ethyl]-ethyl-amine] | 8.00 to 11.00
28 | CCN(CC)CCOc1ccc2[nH]nc(S(=O)(=O)c3ccccc3)c2c1 [Example 5, [2-(3-Benzenesulfonyl-1H-indazol-5-yloxy)-ethyl]-diethyl-amine] | 7.35 to 7.44
29 | CC(C)NCCOc1ccc2[nH]nc(S(=O)(=O)c3ccccc3)c2c1 [Example 6, [2-(3-Benzenesulfonyl-1H-indazol-5-yloxy)-ethyl]-isopropyl-amine] | 7.60 to 7.96
30 | CCCCNCCOc1ccc2[nH]nc(S(=O)(=O)c3ccccc3)c2c1 [Example 7, [2-(3-Benzenesulfonyl-1H-indazol-5-yloxy)-ethyl]-butyl-amine] | 7.46 to 7.59
31 | O=S(=O)(c1ccccc1)c1n[nH]c2ccc(OCCNC3CC3)cc12 [Example 8, [2-(3-Benzenesulfonyl-1H-indazol-5-yloxy)-ethyl]-cyclopropyl-amine] | 7.46 to 7.59
32 | O=S(=O)(c1ccccc1)c1n[nH]c2ccc(OCCNC3CCCC3)cc12 [Example 9, 3-Benzenesulfonyl-5-(2-cyclopentyl-1-yl-ethoxy)-1H-indazole] | 7.60 to 7.96
33 | O=S(=O)(c1ccccc1)c1n[nH]c2ccc(OCCN3CCOCC3)cc12 [Example 10, 3-Benzenesulfonyl-5-(2-morpholin-4-yl-ethoxy)-1H-indazole] | < 7.35
34 | O=S(=O)(c1ccccc1)c1n[nH]c2ccc(OCCN3CCCC3)cc12 [Example 11, 3-Benzenesulfonyl-5-(2-pyrrolidin-1-yl-ethoxy)-1H-indazole] | 8.00 to 11.00
35 | CNCCOc1ccc2[nH]nc(S(=O)(=O)c3ccccc3)c2c1 [Example 12, [2-(3-Benzenesulfonyl-1H-indazol-5-yloxy)-ethyl]-methyl-amine] | 7.60 to 7.96
36 | NCCOc1ccc2[nH]nc(S(=O)(=O)c3ccccc3)c2c1 [Example 13, 2-(3-Benzenesulfonyl-1H-indazol-5-yloxy)-ethylamine] | 7.35 to 7.44
37 | CNCCCOc1ccc2[nH]nc(S(=O)(=O)c3cccc4ccccc34)c2c1 [Example 15, Methyl-{3-[3-(naphthalene-1-sulfonyl)-1H-indazol-5-yloxy]-propyl}-amine] | 8.00 to 11.00
38 | CCNCCCOc1ccc2[nH]nc(S(=O)(=O)c3cccc4ccccc34)c2c1 [Example 16, Ethyl-{3-[3-(naphthalene-1-sulfonyl)-1H-indazol-5-yloxy]-propyl}-amine] | 8.00 to 11.00
39 | CCN(C)CCCOc1ccc2[nH]nc(S(=O)(=O)c3cccc4ccccc34)c2c1 [Example 17, Ethyl-methyl-{3-[3-(naphthalene-1-sulfonyl)-1H-indazol-5-yloxy]-propyl}-amine] | 8.00 to 11.00
40 | CCN(CC)CCCOc1ccc2[nH]nc(S(=O)(=O)c3cccc4ccccc34)c2c1 [Example 18, Diethyl-{3-[3-(naphthalene-1-sulfonyl)-1H-indazol-5-yloxy]-propyl}-amine] | 8.00 to 11.00
